Test results: patent US20240277717A1, “APPLICATION OF GANCICLOVIR IN PREPAPRATION OF MEDICINE FOR TREATING ALLERGIC RHINITIS” (Union Hospital, Tongji Medical College, Huazhong University …, priority 2023, published 2024)

Columns and labels:
[1] = tested on: patients with the intractable AR; assay: Interventional non-randomized cohort study of GCV for intractable AR: clinical symptom scores (VAS, ARCT, TNSS); format: in vivo, human; conditions: for TNSS after GCV treatment / rhinocnesmus score after GCV treatment / sneezing score after GCV treatment / rhinocleisis score after GCV treatment / rhinorrhea score after GCV treatment / ARCT after GCV treatment / VAS after GCV treatment: 14 days; for ARCT after GCV then routine anti-allergic medicines / TNSS after GCV then routine anti-allergic medicines / VAS after GCV then routine anti-allergic medicines / rhinocleisis score after GCV then routine anti-allergic medicines / rhinocnesmus score after GCV then routine anti-allergic medicines / rhinorrhea score after GCV then routine anti-allergic medicines / sneezing score after GCV then routine anti-allergic medicines: then routine anti-allergic medicines 14 days
Description: All patients are recruited from outpatient department of otolaryngology, the patients with AR complain of poor efficacy of routine anti-allergic medicines (nasal glucocorticoid sprays, oral antihistamines, nasal antihistamine sprays and oral leukotriene receptor antagonists). The inclusion and exclusion criteria of recruiting are as follows.
The exclusion criteria: (1) patients have viral/bacterial infection symptoms, fevers and/or other systemic manifestations in the past 2 weeks; (2) patients have other nasal diseases, such as nasal polyps or nasal tumors; (3) patients have a history of nasal surgery in the past 6 months; (4) patients are allergic to the GCV; (5) patients are pregnant women and patients are preparing for pregnancy; (6) the patients have severe neutropenia (absolute neutrophil count<0.5×10^9 per liter) or severe thrombocytopenia (platelet count<2.5×10^10 per liter).
An interventional non-randomized cohort study is conducted. Selected patients are treated with the routine anti-allergic medicines for 2 weeks to exclude the illusion of poor efficacy due to non-standard medication (combined use of nasal spray hormones and oral antihistamines to exclude treatment, and the selected patients are switched to with another brand of similar medicines if the selected patients have previously used the above medicines but no effect).
The selected patients are grouped according to responses to the routine anti-allergic medicines. If the routine anti-allergic medicines treatments are effective, the selected patients are classified as a common AR group; if ineffective, the selected patients are defined as intractable AR patients. The intractable AR patients are treated with the GCV for 2 weeks (oral, 500 milligrams per time (mg/time) twice a day for the patients≥14 years old; 250 mg/time twice a day for the patients<14 years old). If the GCV treatments are ineffective, the patients are classified as a GCV ineffective group; if effective, the patients are classified as GCV effective group. After 2 weeks of the GCV treatment, the patients in the GCV effective group, if total nasal symptom score (TNSS)≥4 or visual analogue scale (VAS)≥3 centimeters (cm) after the GCV treatment, […], conversely, the GCV treatment ends. The nasal symptoms are evaluated at each follow-up. In this situation, nasal secretion smears, nasal secretions, nasal scraping epithelial cells and peripheral blood are collected.
The visual analogue scale (VAS): the severity of all comprehensive symptoms is assessed by the VAS, ranging from 0 (no symptoms) to 10 centimeters (most severe and imaginable symptoms). Allergic rhinitis and its impact on asthma (ARIA) 2008 guideline classification: “mild” AR=0-3 centimeters, “moderate” AR=3.1-7 centimeters, “severe” AR=7.1-10 centimeters.
Allergic rhinitis control test (ARCT) is a self-administered questionnaire on AR control verified by Demoly et al. It consists of five questions with a score of 1-5 points for each question scored and a total score of 5-25 points. The intractable AR is defined as patients with ARCT score<20 points after 2 weeks of treatment.
Nasal symptom score: rhinocleisis, rhinocnesmus, sneezing, rhinorrhea are scored separately. No symptoms=0; mild (mild symptoms, easy to tolerate)=1; moderate (obvious symptoms, annoying, but tolerable)=2; severe (symptoms are not tolerable, affecting daily life or sleep)=3. The total nasal symptom score (TNSS) is the sum of all nasal symptom scores, ranging from 0 to 12.

[2] = tested on: Eosinophil cationic protein (ECP); assay: ECP in the nasal secretions by ELISA; format: in vivo, human
Procedure: Two pieces of 1.0 centimeter (cm)×1.5 cm sterile medical sponge are gently placed into the patient's bilateral nasal cavity for 1-5 minutes (min). After the sponge adsorbs enough the nasal secretions, the sponge is gently removed and put into a 2 milliliters (mL) syringe. The nasal secretions are squeezed out and collected in a 1.5 mL centrifuge tube, centrifuged at 3000 revolutions per minute (rpm) for 5 min, and the supernatant is taken and placed in a refrigerator at −80° C. for testing. Eosinophil cationic protein (ECP) in the nasal secretions is detected by enzyme-linked immunosorbent assay (ELISA). The ECP-ELISA kit is from Zhongmin Taike Biotechnology Co., Ltd. Cytokine levels of interleukin (IL)-2, IL-4, IL-5, IL-6, IL-13, IL-17A, IL-28A, IL-33, interferon (IFN)-α, IFN-β, IFN-γ, IFN-λ, and Eotaxin in the nasal secretions are measured by using Luminex (R&D; LXSAHM-13).

[3] = Case 1, GCV 250 mg/time twice a day, before 1
[4] = Case 1, GCV 250 mg/time twice a day, before 3
[5] = Case 2, GCV 500 mg/time twice a day, before 2
[6] = Case 2, GCV 500 mg/time twice a day, before 7
[7] = Case 2, GCV 14 days, then nasal spray hormone plus oral antihistamines 14 days
[8] = Case 3, GCV 250 mg/time twice a day, before 3
[9] = Case 4, GCV 500 mg/time twice a day, before 1
[10] = Case 5, GCV 500 mg/time twice a day, before 3

SMILES: Nc1nc(O)c2ncn(COC(CO)CO)c2n1 [GCV, Ganciclovir]
- TNSS after GCV treatment ([1]; Case 1 (person one), GCV 250 mg/time twice a day, before 8): 3 points
- rhinocnesmus score after GCV treatment [1, 3]: 1 points
- sneezing score after GCV treatment [1, 3]: 0 points
- rhinocleisis score after GCV treatment [1, 4]: 1 points
- rhinorrhea score after GCV treatment [1, 4]: 1 points
- ARCT after GCV treatment ([1]; Case 1, GCV 250 mg/time twice a day, before 5): 21 points
- VAS after GCV treatment ([1]; Case 1, GCV 250 mg/time twice a day, before 8): 4.5 cm
- ARCT after GCV then routine anti-allergic medicines ([1]; Case 1, GCV 14 days): 24 points
- TNSS after GCV then routine anti-allergic medicines ([1]; Case 1, GCV 14 days): 2 points
- VAS after GCV then routine anti-allergic medicines ([1]; Case 1, GCV 14 days): 2.5 cm
- rhinocleisis score after GCV then routine anti-allergic medicines ([1]; Case 1, GCV 14 days): 1 points
- rhinocnesmus score after GCV then routine anti-allergic medicines ([1]; Case 1, GCV 14 days): 0 points
- rhinorrhea score after GCV then routine anti-allergic medicines ([1]; Case 1, GCV 14 days): 1 points
- sneezing score after GCV then routine anti-allergic medicines ([1]; Case 1, GCV 14 days): 0 points
- rhinocleisis score after GCV treatment [1, 5]: 2 points
- rhinocnesmus score after GCV treatment [1, 5]: 2 points
- rhinorrhea score after GCV treatment [1, 5]: 0 points
- sneezing score after GCV treatment [1, 5]: 0 points
- ARCT after GCV treatment [1, 6]: 20 points
- VAS after GCV treatment [1, 6]: 4 cm
- TNSS after GCV treatment ([1]; Case 2, GCV 500 mg/time twice a day, before 8): 4 points
- ARCT after GCV then anti-allergic medicines [1, 7]: 25 points
- TNSS after GCV then anti-allergic medicines [1, 7]: 1 point
- VAS after GCV then anti-allergic medicines [1, 7]: 2 cm
- rhinocleisis score after GCV then anti-allergic medicines [1, 7]: 1 point
- rhinocnesmus score after GCV then anti-allergic medicines [1, 7]: 0 point
- rhinorrhea score after GCV then anti-allergic medicines [1, 7]: 0 point
- sneezing score after GCV then anti-allergic medicines [1, 7]: 0 point
- rhinocleisis score after GCV treatment [1, 8]: 2 points
- rhinocnesmus score after GCV treatment [1, 8]: 1 points
- rhinorrhea score after GCV treatment [1, 8]: 3 points
- sneezing score after GCV treatment [1, 8]: 3 points
- ARCT after GCV treatment ([1]; Case 3, GCV 250 mg/time twice a day, before 5): 22 points
- VAS after GCV treatment ([1]; Case 3, GCV 250 mg/time twice a day, before 10): 5 cm
- TNSS after GCV treatment ([1]; Case 3, GCV 250 mg/time twice a day, before 12): 9 points
- ARCT after GCV then routine anti-allergic medicines ([1]; Case 3, GCV 14 days): 25 points
- TNSS after GCV then routine anti-allergic medicines ([1]; Case 3, GCV 14 days): 3 points
- VAS after GCV then routine anti-allergic medicines ([1]; Case 3, GCV 14 days): 2.5 cm
- rhinocleisis score after GCV then routine anti-allergic medicines ([1]; Case 3, GCV 14 days): 1 point
- rhinocnesmus score after GCV then routine anti-allergic medicines ([1]; Case 3, GCV 14 days): 0 point
- rhinorrhea score after GCV then routine anti-allergic medicines ([1]; Case 3, GCV 14 days): 1 point
- sneezing score after GCV then routine anti-allergic medicines ([1]; Case 3, GCV 14 days): 1 point
- ARCT after GCV treatment ([1]; Case 4, GCV 500 mg/time twice a day): 24 points
- rhinocnesmus score after GCV treatment [1, 9]: 0 point
- sneezing score after GCV treatment [1, 9]: 0 point
- rhinorrhea score after GCV treatment ([1]; Case 4, GCV 500 mg/time twice a day, before 2): 1 point
- rhinocleisis score after GCV treatment ([1]; Case 4, GCV 500 mg/time twice a day, before 3): 1 point
- TNSS after GCV treatment ([1]; Case 4, GCV 500 mg/time twice a day, before 7): 2 points
- VAS after GCV treatment ([1]; Case 4, GCV 500 mg/time twice a day, before 9): 1.5 cm
- nasal symptoms after GCV then nasal spray hormone ([1]; Case 4, GCV 14 days, then 7 days of the nasal spray hormone): disappear completely
- rhinocnesmus score after GCV treatment ([1]; Case 5, GCV 500 mg/time twice a day, before 0): 0 point
- rhinorrhea score after GCV treatment ([1]; Case 5, GCV 500 mg/time twice a day, before 1): 1 point
- rhinocleisis score after GCV treatment [1, 10]: 1 point
- sneezing score after GCV treatment [1, 10]: 0 point
- ARCT after GCV treatment ([1]; Case 5, GCV 500 mg/time twice a day, before 5): 24 points
- TNSS after GCV treatment ([1]; Case 5, GCV 500 mg/time twice a day, before 7): 2 points
- VAS after GCV treatment ([1]; Case 5, GCV 500 mg/time twice a day, before 10): 2.2 cm
- nasal symptom (rhinocleisis, rhinocnesmus, sneezing, rhinorrhea) scores before and after GCV treatment (FIG. 2) ([1]; GCV effective group): significantly improved
- ARCT, VAS and TNSS scores during diagnosis and treatment (FIGS. 1A-1C) ([1]; GCV effective group n=26, after 2 weeks GCV): significantly ameliorates the nasal symptoms
- nasal symptoms after re-treatment with previously ineffective anti-allergic medicines following GCV ([1]; n=15 with TNSS≥4 or VAS≥3 cm after 2 weeks GCV, then anti-allergic medicines 2 weeks): could further reduce the nasal symptoms
- intractable AR patients ineffective after the GCV treatment ([1]; oral GCV 2 weeks, 14/40, ineffective = ARCT<20): 35%
- ECP in nasal secretions, change after GCV treatment ([2]; GCV effective group and GCV ineffective group): no significant change
- ECP in nasal secretions, after treatment ([2]; GCV effective group, before 42.38 ± 41.04): 20.18 ± 18.42 µg/mL
- ECP in nasal secretions, after treatment ([2]; GCV ineffective group, before 82 ± 18.01): 45.993 ± 37.12 µg/mL
